Test results as given in patent publication US20200308162A1, “DRUGS AND COMPOSITIONS FOR OCULAR DELIVERY” (Graybug Vision, Inc., priority 2017, published 2020).
Entries after “also recorded” stand apart in the source; their conditions may differ. Structures can show the parent of a compound that is named as a salt. Values belong to the molecule of their own block, whether it stands above or below them.

Columns and labels:
[1] = Drug release kinetics of Timolol and ethacrynic acid prodrugs from polymer microparticles; type: physicochemical
Experimental: The effect of polymer composition including monomer ratio and molecular weight, polymer end-groups (ester or acid), inherent viscosity and polymer blend ratios on particle degradation and drug release kinetics of Timolol-O-ethyl fumurate (17) was evaluated and is illustrated in FIG. 5. The rate of particle degradation was slowed and drug release was prolonged when the mole % of DL-lactide over glycolide was increased. By incorporating polymers with different monomer ratios (i.e., PLA, PLGA8515, PLGA525, PLGA5050 wherein 8515 refers to 85% DL-lactide and 15% glycolide) into the particles, it is possible to fine-tune the degradation rate of the particles to achieve a linear rate of drug release from the particles to minimize burst or lag and to extend the duration of release. […] The 78/22(PLA 5A/PLGA8515 4.5A) and 65/20/15(PLA 4A/PLGA6515 4.5A/PLGA5050 4A) polymer blends generated ideal particles for a 3-6 month linear release formulation. […] The rate of release was independent of the salt form. […] Thus, release rate is not solely dictated by the physicochemical properties of the linker, but rather must be attributed to a combination of parameters that may include linker type and site of linker conjugation.
FIG. 6 illustrates the release kinetics of ethacrynic acid-PLA(n=4)-ethyl ester (1) from PLGA microparticles. The drug was released over a period of approximately 66 days.
FIG. 8 and FIG. 9 illustrate the release kinetics of ethacrynic acid-PLA(n=4)-ethyl ester (1) and ethacrynic acid-PLA(n=6)-ethyl ester (25), respectively, from PLGA microparticles. The drug was released from a number of formulations over a period of greater than 90 days. […] Particles generated with 1% PVA in PBS was compared against particles generated in 1% PVA in water (FIG. 10).
Based upon these initial formulation screens, the formulation comprising of 1% mPEG-PLGA and 99% PLA100 4.5A:PLGA8515 5A (77:22) was selected as the lead formulation for ECA-PLA(n=4) (1) and ECA-PLA(n=6) (25) prodrugs. The particles were prepared in 1% PVA in water. The release profiles for the lead ECA-PLA(n=4) (1) and ECA-PLA(=6) (25) particle formulations are illustrated in FIG. 11.

[2] = In vitro stability of ethacrynic acid prodrugs at 37° C.; type: physicochemical; details: for generation of parent ethacrynic acid as ester linkages are hydrolyzed: 37° C. over 6 days
From the text: As evidenced, both prodrugs of ethacrynic acid degrade steadily over the 6 day period. As the ester linkages are hydrolyzed, the parent compound is generated in a linear rate. The rate of degradation to the parent compound is faster for the shorter […] in comparison to the degradation kinetics for ethacrynic acid-PLA(n=4)-ethyl ester (1).
Approximately 94% of the ECA-PLA(n=4) prodrug (1) has been converted to free ECA by day 6, in comparison to only 56% for ECA-PLA(n=6) (25). Also, by day 6, all the initial prodrug has been degraded into intermediates and free drug respectively.

[3] = Percent drug loading of ethacrynic acid prodrug microparticles (RP-HPLC); type: physicochemical
Experimental: To determine the percent drug loading (% DL), 10 mg of particles was weighed into a glass scintillation vial and dissolved with 10 mL of MeCN:water (1:1, v/v). The solution was filtered through a 0.2 μm nylon syringe filter and the drug content was determined by RP-HPLC referenced against a standard calibration curve.

[4] = Mean size of ethacrynic acid prodrug encapsulated microparticles; type: physicochemical
[5] = Drug solubility in water, DMSO and DCM (HPLC of filtered supernatant); details: for solubility: thermodynamic from solid; for Solubility Water: 50 mg/mL target concentration
Experimental: For each test, approximately 5-10 mg was transferred to a 10 mL glass vial. Aqueous or organic solvent was added to each vial to achieve an overall concentration of 50 mg/mL. After vortexing aggressively for 2-3 minutes and sonicating in a bath sonicator for 5 minutes, undissolved drug was spun down at 1200 rpm for 5 minutes to generate a pellet. The supernatant was collected and filtered through a 0.2 μm nylon syringe filter into HPLC vials for drug content analysis. Drug concentration was determined by comparing against a standard calibration curve.

[6] = In vitro drug release kinetics of Timolol prodrug microparticles in PBS and 1% Tween 20 (pH 7.4) at 37° C.; type: physicochemical; details: PBS and 1% Tween 20 (pH 7.4), 37° C.
Experimental: In vitro drug release kinetics were evaluated in a release medium composed of PBS and 1% Tween 20 (pH 7.4). Briefly, 10 mg of particles was suspended in 4 mL of the release medium The particle suspension was incubated on an orbital shaker at 150 rpm at 37° C. At various time points, 3 mL of release media was collected, and the suspension was replenished with 3 mL of fresh release media. Collected release samples were frozen and stored at −80° C. until analysis for drug content. The collected samples were filtered through a 0.2 μm syringe filter and analyzed by RP-HPLC. FIG. 17-FIG. 22 illustrate the total and parent Timolol release profile for the microparticles encapsulating bis-prodrugs of Timolol of Table 11.

[7] = PLA100 4.5A + 1% PEG-PLGA5050, polymer 200 mg/mL
[8] = PLA100 4.5A + PLGA7525 6E (69:30) + 1% PEG-PLGA5050, polymer 200 mg/mL
[9] = PLA100 4.5A + PLGA8515 5A (77:22) + 1% PEG-PLGA5050, polymer 200 mg/mL
[10] = PLA100 4.5A + PLGA8515 5A + PLGA5050 4A (64:20:15) + 1% PEG-PLGA5050, polymer 200 mg/mL
[11] = PLA100 4.5A + PLGA8515 5A + PLGA5050 4A (64:30:5) + 1% PEG-PLGA5050, polymer 200 mg/mL
[12] = PLGA7525 4A + 1% PEG-PLGA5050, polymer 200 mg/mL
[13] = PLGA7525 6A + 1% PEG-PLGA5050, polymer 200 mg/mL
[14] = PLGA8515 5A + 1% PEG-PLGA5050, polymer 200 mg/mL
[15] = PLGA8515 5A + PLGA7525 4A (69:30) + 1% PEG-PLGA5050, polymer 200 mg/mL
[16] = DMSO, organic solvent or mixture
[17] = DCM, organic solvent or mixture

Molecule: C=C(CC)C(=O)c1ccc(OCC(=O)O[C@@H](C)C(=O)O[C@@H](C)C(=O)O[C@@H](C)C(=O)O[C@@H](C)C(=O)OCC)c(Cl)c1Cl [Compound 1, (S)-2-{2-[2,3-Dichloro-4-(2-methylene-butyryl)-phenoxy]-acetoxy}-propionic acid (S)-1-[(S)-1-((S)-1-ethoxycarbonyl-ethoxycarbonyl)-ethoxycarbonyl]-ethyl ester]
in vitro release profile of lead microparticle formulation ([1]; 1% mPEG-PLGA and 99% PLA100 4.5A:PLGA8515 5A (77:22), prepared in 1% PVA in water, FIG. 11): typical biphasic release profile | period over which the drug was released ([1]; microparticles of PLA/PLGA blends, PLGA blends, FIG. 6): approximately 66 days | generation of parent ethacrynic acid as ester linkages are hydrolyzed [2]: generated at a linear rate | rate of degradation of the prodrug ([2]; 37° C., 6 days): slightly faster | prodrug converted to free ECA by day 6 ([2]; 37° C., day 6): Approximately 94% | % Drug loading [3, 7]: 13.42% | % Drug loading [3, 8]: 14.17% | % Drug loading [3, 9]: 12.56% | % Drug loading [3, 10]: 13.75% | % Drug loading [3, 11]: 12.68% | % Drug loading [3, 12]: 13.09% | % Drug loading [3, 13]: 13.15% | % Drug loading [3, 14]: 13.59% | % Drug loading [3, 15]: 13.49% | Mean size [4, 7]: 35.06 um | Mean size [4, 8]: 27.40 um | Mean size [4, 9]: 26.60 um | Mean size [4, 10]: 28.34 um | Mean size [4, 11]: 29.86 um | Mean size [4, 12]: 29.85 um | Mean size [4, 13]: 25.21 um | Mean size [4, 14]: 28.90 um | Mean size [4, 15]: 27.74 um | solubility [5, 16]: > 40 mg/mL | solubility ([5]; water): < 1 mg/mL

Molecule: C=C(CC)C(=O)c1ccc(OCC(=O)O[C@@H](C)C(=O)O[C@@H](C)C(=O)OCC)c(Cl)c1Cl [Compound 2, 2-{2-[2,3-Dichloro-4-(2-methylene-butyryl)-phenoxy]-acetoxy}-propionic acid 1-ethoxycarbonyl-ethyl ester]
generation of parent ethacrynic acid as ester linkages are hydrolyzed [2]: generated at a linear rate | rate of degradation to the parent compound / conversion to the free drug ([2]; 37° C., 6 days, comparison between prodrugs): degraded faster; also recorded: significantly faster | solubility [5, 16]: > 50 mg/mL | solubility ([5]; water): < 1 mg/mL

Molecule: CC(C)(C)NC[C@@H](COc1nsnc1N1CCOCC1)OC(=O)CCC(=O)O [Compound 4, Succinic acid mono-[(S)-1-(tert-butylamino-methyl)-2-(4-morpholin-4-yl-[1,2,5]thiadiazol-3-yloxy)-ethyl] ester]
solubility [5, 16]: > 50 mg/mL | solubility ([5]; water): > 50 mg/mL

Molecule: CCOC(=O)CCC(=O)O[C@@H](CNC(C)(C)C)COc1nsnc1N1CCOCC1.O=C(O)/C=C\C(=O)O [Compound 5, Timolol-O-Ethylsuccinate Maleate]
solubility [5, 16]: > 50 mg/mL | solubility ([5]; water): 12.5 mg/mL

Molecule: CCOC(=O)CCC(=O)O[C@@H](CNC(C)(C)C)COc1nsnc1N1CCOCC1.Cl [Compound 6, Timolol-O-Ethylsuccinate HCL]
solubility [5, 16]: > 50 mg/mL | solubility ([5]; water): 6.25 mg/mL

Molecule: CC(C)(C)NC[C@@H](COc1nsnc1N1CCOCC1)OC(=O)/C=C\C(=O)O [Compound 7, Timolol-O-Maleate]
solubility [5, 16]: > 50 mg/mL | solubility ([5]; water): > 50 mg/mL

Molecule: CCOC(=O)/C=C\C(=O)O[C@@H](CNC(C)(C)C)COc1nsnc1N1CCOCC1.O=C(O)/C=C\C(=O)O [Compound 8, Timolol-O-Ethylmaleate-Maleic Acid]
solubility [5, 16]: > 50 mg/mL | solubility ([5]; water): < 1 mg/mL

Molecule: CCCCCCCCCCCCOC(=O)/C=C/C(=O)O[C@@H](CNC(C)(C)C)COc1nsnc1N1CCOCC1 [Compound 12, Timolol-O-Laurylfumurate-Maleate]
solubility [5, 16]: > 100 mg/mL | solubility ([5]; water): < 1 mg/mL

Molecule: CCN[C@H]1C[C@H](C)S(=O)(=O)c2sc(S(=O)(=O)NC(=O)/C=C/C(=O)OCC)cc21 [Compound 14, Dorzolamide-Ethylfumurate]
solubility [5, 17]: > 100 mg/mL | solubility [5, 16]: > 100 mg/mL | solubility ([5]; water): < 1 mg/mL

Molecule: Dorzolamide-Stearylfumurate [Compound 15]
Solubility DMSO ([5]; DMSO): >100 mg/mL | Solubility Water ([5]; water): >50 mg/mL

Second part, the molecule after the results:

linear release profile ([1]; microparticles, 78/22(PLA 5A/PLGA8515 4.5A) and 65/20/15(PLA 4A/PLGA6515 4.5A/PLGA5050 4A) polymer blends, FIG. 5): 3-6 month | solubility [5, 16]: > 50 mg/mL | solubility ([5]; water): < 1 mg/mL | Solubility Water ([5]; water): <1.0 mg/mL
Molecule: CCOC(=O)/C=C/C(=O)O[C@@H](CNC(C)(C)C)COc1nsnc1N1CCOCC1 [Compound 17, Timolol-O-Ethylfumurate]

solubility [5, 16]: > 100 mg/mL | solubility ([5]; water): > 25 mg/mL
Molecule: CCOC(=O)/C=C\C(=O)OC(CNC(C)(C)C)COc1nsnc1N1CCOCC1 (centres unmarked) [Compound 18, Timolol-O-Ethyl Maleate]

solubility [5, 16]: > 50 mg/mL | solubility ([5]; water): < 0.1 mg/mL
Molecule: C=C(CC)C(=O)c1ccc(OCC(=O)O[C@@H](C)C(=O)O[C@@H](C)C(=O)O[C@@H](C)C(=O)O[C@@H](C)C(=O)O[C@@H](C)C(=O)O[C@@H](C)C(=O)O[C@@H](C)C(=O)O[C@@H](C)C(=O)OCC)c(Cl)c1Cl [Compound 26]

parent Timolol released relative to total release of prodrug and intermediates [6]: significantly less
Molecule: CC(=O)OC(C)C(=O)OC(C)C(=O)OC(C)C(=O)OC(C)C(=O)N(C[C@@H](COc1nsnc1N1CCOCC1)OC(=O)C(C)OC(=O)C(C)OC(C)=O)C(C)(C)C (some centres unmarked) [Compound 55, Timolol-Bis-N-Acetyl-PLA (n = 4)-O-Acetyl PLA (n = 2)]

parent Timolol released relative to total release of prodrug and intermediates [6]: significantly less
Molecule: CC(=O)OC(C)C(=O)OC(C)C(=O)OC(C)C(=O)OC(C)C(=O)O[C@H](COc1nsnc1N1CCOCC1)CN(C(=O)C(C)OC(=O)C(C)OC(C)=O)C(C)(C)C (some centres unmarked) [Compound 56, Timolol-Bis-N-Acetyl-PLA (n = 2)-O-Acetyl-PLA (n = 4)]

solubility [5, 17]: < 1 mg/mL | solubility [5, 16]: < 1 mg/mL | solubility ([5]; water): > 50 mg/mL
Molecule: CCN[C@H]1C[C@H](C)S(=O)(=O)c2sc(S(N)(=O)=O)cc21 [Dorzolamide, reference compound]

Solubility DMSO ([5]; DMSO): >50 mg/mL | Solubility Water ([5]; water): <1.0 mg/mL
Molecule: Dorzolamide-Laurylmaleate [Compound 16]

parent Timolol released relative to total release of prodrug and intermediates [6]: significantly less
Molecule: Timolol-Bis-Acetyl PLA (n = 4) [Compound 54]
